Reference: US12084444B2, “Spiro-lactam NMDA modulators and methods of using same” (Tenacia Biotechnology (Hong Kong) Co., Limited, priority 2016, dated 2024)

Target: T1, NMDAR2B expressing HEK cell membranes (Homo sapiens, UniProt Q05586+Q13224)
T1 construct: expressed in transfected cells; host or cells: HEK cells (membrane extract)
Assay: NMDAR agonist assay, [3H]MK-801 binding, NMDAR2B
Type: biochemical
Details: 50 μM glutamate
How it was run: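 HEK membranes (300 μg protein) expressing each subtype were preincubated 15 min at 25 °C with 50 μM glutamate and compound (1×10^−15–1×10^−7 M) or 1 mM glycine. [3H]MK-801 (0.3 μCi) binding then ran 15 min under nonequilibrium conditions, followed by filtration. EC50 and % maximal binding against 1 mM glycine came from three-parameter fits of baseline-subtracted DPM (N=2).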

T1 sequence (Q13224 27-1484, other chains not shown): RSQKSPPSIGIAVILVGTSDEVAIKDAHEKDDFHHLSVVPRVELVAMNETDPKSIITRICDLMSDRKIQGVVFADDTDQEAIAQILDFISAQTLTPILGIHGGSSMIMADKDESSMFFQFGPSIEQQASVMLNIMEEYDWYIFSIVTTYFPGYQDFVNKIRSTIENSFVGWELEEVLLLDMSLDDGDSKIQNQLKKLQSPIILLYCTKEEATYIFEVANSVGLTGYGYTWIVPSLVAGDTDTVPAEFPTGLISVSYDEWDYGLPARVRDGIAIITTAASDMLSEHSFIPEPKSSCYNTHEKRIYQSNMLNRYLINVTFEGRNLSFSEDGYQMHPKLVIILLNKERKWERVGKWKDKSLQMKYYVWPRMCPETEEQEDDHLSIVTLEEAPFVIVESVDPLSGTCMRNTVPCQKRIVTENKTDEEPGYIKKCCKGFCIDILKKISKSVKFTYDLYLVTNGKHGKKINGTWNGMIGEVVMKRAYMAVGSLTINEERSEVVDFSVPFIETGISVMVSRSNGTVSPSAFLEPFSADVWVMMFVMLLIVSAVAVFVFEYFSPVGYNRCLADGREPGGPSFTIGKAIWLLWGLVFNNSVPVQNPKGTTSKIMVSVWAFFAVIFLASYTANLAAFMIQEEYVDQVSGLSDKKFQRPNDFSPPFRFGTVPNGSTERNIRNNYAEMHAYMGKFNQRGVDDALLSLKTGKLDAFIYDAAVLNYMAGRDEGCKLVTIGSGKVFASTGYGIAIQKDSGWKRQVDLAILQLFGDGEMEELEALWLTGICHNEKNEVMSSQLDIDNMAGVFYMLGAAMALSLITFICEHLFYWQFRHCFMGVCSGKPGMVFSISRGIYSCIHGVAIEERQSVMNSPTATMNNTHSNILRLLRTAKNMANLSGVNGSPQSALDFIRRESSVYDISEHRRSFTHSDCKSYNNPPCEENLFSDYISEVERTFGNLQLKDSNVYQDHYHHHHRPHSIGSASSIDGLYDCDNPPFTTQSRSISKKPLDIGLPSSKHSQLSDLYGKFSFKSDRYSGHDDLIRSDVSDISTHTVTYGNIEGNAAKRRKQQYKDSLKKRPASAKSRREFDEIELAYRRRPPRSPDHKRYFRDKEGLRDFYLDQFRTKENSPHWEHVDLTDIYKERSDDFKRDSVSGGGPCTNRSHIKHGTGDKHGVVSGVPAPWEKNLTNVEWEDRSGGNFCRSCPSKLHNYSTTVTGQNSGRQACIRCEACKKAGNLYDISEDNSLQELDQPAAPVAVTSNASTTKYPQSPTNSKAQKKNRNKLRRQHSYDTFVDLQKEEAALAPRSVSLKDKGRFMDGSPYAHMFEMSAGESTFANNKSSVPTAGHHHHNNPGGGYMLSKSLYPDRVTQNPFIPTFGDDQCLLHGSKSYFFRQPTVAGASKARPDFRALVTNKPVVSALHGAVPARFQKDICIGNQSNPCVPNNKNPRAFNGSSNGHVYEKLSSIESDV

`COc1ccc(CN2C[C@@]3(CCNC(=O)C3)C2=O)cc1` [Compound AA-2, 2-(4-methoxybenzyl)-2,7-diazaspiro[3.5]nonane-1,6-dione] was tested, and the EC50 (read-out: NMDAR2B B: log EC50 (converted)) was < 1 nM and the Emax (0.25 h, read-out: NMDAR2B A: % maximal [3H]MK-801 binding relative to 1 mM glycine) was < 100%.
